Data from ChEMBL document CHEMBL6103559, “Marine actinomycetes-derived angucyclines and angucyclinones with biosynthesis and activity--past 10 years (2014-2023)” (Eur J Med Chem, 2025).
In brackets after ≈: the same amount, converted by molar mass.

Experiments:
Enterococcus faecalis = experiment: Antibacterial activity against multi-drug resistant Enterococcus faecalis CCARM 5172 assessed as inhibition of bacterial growth incubated for 18 hrs by microplate reader analysis; assay type: functional
Enterococcus faecium = experiment: Antibacterial activity against multi-drug resistant Enterococcus faecium CCARM 5203 assessed as inhibition of bacterial growth incubated for 18 hrs by microplate reader analysis; assay type: functional
Escherichia coli [1] = experiment: Antibacterial activity against multi-drug resistant Escherichia coli CCARM 1009 assessed as inhibition of bacterial growth incubated for 18 hrs by microplate reader analysis; assay type: functional
Salmonella typhimurium = experiment: Antibacterial activity against multi-drug resistant Salmonella Typhimurium CCARM 8250 assessed as inhibition of bacterial growth incubated for 18 hrs by microplate reader analysis; assay type: functional, Salmonella enterica subsp. enterica serovar Typhimurium; conditions: Salmonella enterica
Staphylococcus aureus [2] = experiment: Antibacterial activity against multi-drug resistant Staphylococcus aureus CCARM 3090 assessed as inhibition of bacterial growth incubated for 18 hrs by microplate reader analysis; assay type: functional
MDA-MB-231 [3] = experiment: Cytotoxicity against human MDA-MB-231 cells assessed as reduction in cell growth by MTT assay; assay type: functional, cell-based
K562 = experiment: Cytotoxicity against human K562 cells assessed as reduction in cell growth by MTT assay; assay type: functional, cell-based
ASPC1 = experiment: Cytotoxicity against human ASPC1 cells assessed as reduction in cell growth by MTT assay; assay type: functional, cell-based
H69AR = experiment: Cytotoxicity against human NCI-H69AR cells assessed as reduction in cell growth by MTT assay; assay type: functional, cell-based
NCI-H69 = experiment: Cytotoxicity against human NCI-H69 cells assessed as reduction in cell growth by MTT assay; assay type: functional, cell-based
PC-3 [4] = experiment: Cytotoxicity against human PC-3 cells assessed as reduction in cell growth by SRB assay; assay type: functional, cell-based
A2780 = experiment: Cytotoxicity against human A2780 cells assessed as reduction in cell growth by SRB assay; assay type: functional, cell-based
Staphylococcus aureus [5] = experiment: Antibacterial activity against Staphylococcus aureus ATCC 43300 assessed as reduction in bacterial growth measured for 12 hrs by broth micro-dilution method; assay type: functional
Candida albicans = experiment: Antifungal activity against Candida albicans assessed as reduction in […] growth measured for 12 hrs by broth micro-dilution method; assay type: functional
ACHN = experiment: Growth inhibition of human ACHN cells after 48 hrs by sulforhodamine B assay; assay type: functional
HCT-15 = experiment: Growth inhibition of human HCT-15 cells after 48 hrs by sulforhodamine B assay; assay type: functional
MDA-MB-231 [6] = experiment: Growth inhibition of human MDA-MB-231 cells after 48 hrs by sulforhodamine B assay; assay type: functional
NCI-H23 = experiment: Growth inhibition of human NCI-H23 cells after 48 hrs by sulforhodamine B assay; assay type: functional
NUGC-3 = experiment: Growth inhibition of human NUGC-3 cells after 48 hrs by sulforhodamine B assay; assay type: functional
PC-3 [7] = experiment: Growth inhibition of human PC-3 cells after 48 hrs by sulforhodamine B assay; assay type: functional
Pseudomonas aeruginosa = experiment: Antimicrobial activity against Pseudomonas aeruginosa CMCC(B) 10104 assessed as reduction in microbial growth measured for 18 hrs; assay type: functional
Staphylococcus aureus [8] = experiment: Antimicrobial activity against methicillin-resistant Staphylococcus aureus assessed as reduction in microbial growth measured for 18 hrs; assay type: functional
Klebsiella pneumoniae = experiment: Antibacterial activity against Klebsiella pneumoniae CMCC(B) 46117 assessed as reduction in microbial growth measured for 18 hrs; assay type: functional
Escherichia coli [9] = experiment: Antibacterial activity against Escherichia coli CMCC(B) 44102 assessed as reduction in microbial growth measured for 18 hrs; assay type: functional
Bacillus subtilis = experiment: Antibacterial activity against Bacillus subtilis CMCC(B) 63501 assessed as reduction in microbial growth measured for 18 hrs; assay type: functional
PC-3 [10] = experiment: Cytotoxicity against human PC-3 cells; assay type: functional, cell-based
MDA-MB-435 = experiment: Cytotoxicity against human MDA-MB-435 cells assessed as reduction in cell viability incubated for 48 hrs by MTT assay; assay type: functional, cell-based; conditions: MDA-MB-435, 48 h
MDA-MB-231 [11] = experiment: Cytotoxicity against human MDA-MB-231 cells assessed as reduction in cell viability incubated for 48 hrs by MTT assay; assay type: functional, cell-based; conditions: MDA-MB-231, 48 h
NCI-H460 = experiment: Cytotoxicity against human NCI-H460 cells assessed as reduction in cell viability incubated for 48 hrs by MTT assay; assay type: functional, cell-based; conditions: NCI-H460, 48 h
HCT-116 [12] = experiment: Cytotoxicity against human HCT-116 cells assessed as reduction in cell viability incubated for 48 hrs by MTT assay; assay type: functional, cell-based; conditions: HCT-116, 48 h
HepG2 [13] = experiment: Cytotoxicity against human HepG2 cells assessed as reduction in cell viability incubated for 48 hrs by MTT assay; assay type: functional, cell-based; conditions: HepG2, 48 h
MCF-10A = experiment: Cytotoxicity against human MCF-10A cells assessed as reduction in cell viability incubated for 48 hrs by MTT assay; assay type: functional, cell-based
Staphylococcus aureus [14] = experiment: Antibacterial activity against methicillin-resistant Staphylococcus aureus assessed as reduction in microbial growth by CLSI based broth microdilution method; assay type: functional
HCT-116 [15] = experiment: Cytotoxicity against human HCT-116 cells by SRB assay; assay type: functional, cell-based
MDA-MB-231 [16] = experiment: Cytotoxicity against human MDA-MB-231 cells by SRB assay; assay type: functional, cell-based
SNU-638 = experiment: Cytotoxicity against human SNU-638 cells by SRB assay; assay type: functional, cell-based
A549 [17] = experiment: Cytotoxicity against human A549 cells by SRB assay; assay type: functional, cell-based
SK-HEP1 = experiment: Cytotoxicity against human SK-HEP1 cells by SRB assay; assay type: functional, cell-based
Jurkat = experiment: Cytotoxicity against human Jurkat T cells; assay type: functional, cell-based
MCF7 = experiment: Cytotoxicity against human MCF7 cells assessed as reduction in cell growth incubated for 72 hrs by SRB assay; assay type: functional, cell-based; conditions: MCF7, 72 h
A549 [18] = experiment: Cytotoxicity against human A549 cells assessed as reduction in cell growth incubated for 72 hrs by SRB assay; assay type: functional, cell-based; conditions: A549, 72 h
HepG2 [19] = experiment: Cytotoxicity against human HepG2 cells assessed as reduction in cell growth incubated for 72 hrs by SRB assay; assay type: functional, cell-based; conditions: HepG2, 72 h
SF-268 = experiment: Cytotoxicity against human SF-268 cells assessed as reduction in cell growth incubated for 72 hrs by SRB assay; assay type: functional, cell-based; conditions: SF-268, 72 h
MDA-MB-231 [20] = experiment: Cytotoxicity against human MDA-MB-231 cells; assay type: functional, cell-based
MDA-MB-468 = experiment: Cytotoxicity against human MDA-MB-468 cells; assay type: functional, cell-based
BT-549 = experiment: Cytotoxicity against human BT-549 cells; assay type: functional, cell-based

Q: How did the MIC (Enterococcus faecalis) turn out when `C[C@@H]1O[C@@H](O[C@H]2[C@H](O)C[C@H](c3ccc4c(c3O)C(=O)c3ccc(C[C@@](C)(O)CC(=O)O)c(O)c3C4=O)O[C@@H]2C)CC[C@@H]1O` was run?
A: 3.12 µg/mL (≈ 5.19 µM)

Q: What about the MIC (Enterococcus faecium) of the same molecule?
A: 3.12 µg/mL (≈ 5.19 µM)

Q: What about the MIC (Escherichia coli [1]) of the same molecule?
A: 3.12 µg/mL (≈ 5.19 µM)

Q: What about the MIC (Salmonella typhimurium) of the same molecule?
A: 3.12 µg/mL (≈ 5.19 µM)

Q: What about the MIC (Staphylococcus aureus [2]) of the same molecule?
A: 3.12 µg/mL (≈ 5.19 µM)

Q: With `CC1=CC(=O)[C@]2(O)[C@](O)(CC[C@@]34O[C@@]23C(=O)c2cccc(O)c2C4=O)C1` as the molecule, how does the IC50 (MDA-MB-231 [3]) read?
A: 320 nM

Q: What about the IC50 (K562) of the same molecule?
A: 320 nM

Q: What about the IC50 (ASPC1) of the same molecule?
A: 320 nM

Q: And the IC50 (H69AR)?
A: 320 nM

Q: What about the IC50 (NCI-H69) of the same molecule?
A: 320 nM

Q: Which results are given for `CC(=O)N[C@@H](CSc1cc2cc(C)cc(O)c2c2c1C(=O)c1c(O)cccc1C2=O)C(=O)O`?
A: IC50 (PC-3 [4]): 19400 nM; IC50 (A2780): 10200 nM; MIC (Staphylococcus aureus [5]): 20 µM (≈ 9.31 µg/mL); MIC (Candida albicans): 20 µM (≈ 9.31 µg/mL)

Q: Which GI50 (ACHN) does the source give for `CSC1=CC2=C(C(=O)c3ccc([C@H]4C[C@@H](O[C@H]5CC[C@H](O[C@H]6C[C@@H](O)[C@H](O)[C@@H](C)O6)[C@H](C)O5)[C@H](O)CO4)c(O)c3C2=O)[C@@]2(O)C(=O)C[C@](C)(O)C[C@@]12O` here?
A: 10 nM

Q: What about the GI50 (HCT-15) of the same molecule?
A: 10 nM

Q: What about the GI50 (MDA-MB-231 [6]) of the same molecule?
A: 10 nM

Q: And the GI50 (NCI-H23)?
A: 10 nM

Q: And the GI50 (NUGC-3)?
A: 10 nM

Q: And the GI50 (PC-3 [7])?
A: 10 nM

Q: How did the MIC (Pseudomonas aeruginosa) turn out when `CO[C@@H]1C[C@@H](O[C@H]2C=C(C)C[C@]3(O)[C@@H](OC(=O)O)[C@@H](O)C4=C(C(=O)c5ccc([C@H]6C[C@@H](O[C@H]7C[C@](C)(O)[C@H](O[C@H]8CC[C@H](OC(N)=O)[C@@H](C)O8)[C@@H](C)O7)[C@@H](O)[C@@H](C)O6)c(O)c5C4=O)[C@]23O)O[C@@H](C)[C@H]1O` was run?
A: 16 µg/mL

Q: And the MIC (Staphylococcus aureus [8])?
A: 16 µg/mL

Q: What about the MIC (Klebsiella pneumoniae) of the same molecule?
A: 16 µg/mL

Q: And the MIC (Escherichia coli [9])?
A: 16 µg/mL

Q: And the MIC (Bacillus subtilis)?
A: 8 µg/mL

Q: How did the IC50 (PC-3 [10]) turn out when `C[C@@]12CC(=O)[C@@]3(O)[C@](O)(CC[C@H]4C(=O)c5c(O)cccc5[C@@H](O)[C@@]43O1)C2` was run?
A: 1380 nM

Q: How did the IC50 (MDA-MB-435) turn out when `C[C@@H]1O[C@@H](O[C@H]2CC[C@H](O[C@H]3[C@H](O)C[C@H](c4ccc5c(c4O)C(=O)c4ccc6c(c4C5=O)C(=O)C[C@](C)(O)C6)O[C@@H]3C)O[C@H]2C)CCC1=O` was run?
A: 2400 nM

Q: And the IC50 (MDA-MB-231 [11])?
A: 2400 nM

Q: What about the IC50 (NCI-H460) of the same molecule?
A: 2400 nM

Q: What about the IC50 (HCT-116 [12]) of the same molecule?
A: 2400 nM

Q: And the IC50 (HepG2 [13])?
A: 2400 nM

Q: And the IC50 (MCF-10A)?
A: 2400 nM

Q: `CC(C)c1cc(=O)c2c(cc(O)c3c(=O)c4c(O)cccc4c(=O)c32)c1=O` was tested. Which MIC (Staphylococcus aureus [14]) did it give?
A: 3.12 µg/mL

Q: What does the source list for `COc1cccc2c1C(=O)O[C@H]2c1c(O)ccc2c1C(=O)C[C@@H](C)[C@@H]2O`?
A: IC50 (HCT-116 [15]): 6700 nM; IC50 (MDA-MB-231 [16]): 6700 nM; IC50 (SNU-638): 6700 nM; IC50 (A549 [17]): 6700 nM; IC50 (SK-HEP1): 6700 nM

Q: For `CC(C)C1(O)CC(=O)c2c(cc(O)c3c2C(=O)c2cccc(O)c2C3=O)C1` (stereo not given), which MIC (Staphylococcus aureus [14]) is on record?
A: 3.12 µg/mL

Q: With `CO[C@@H]1C[C@@H](O[C@H]2C=C(C)[C@@H](O)[C@]3(O)[C@@H](OC(=O)O)[C@@H](O)C4=C(C(=O)c5ccc([C@H]6C[C@@H](O[C@H]7C[C@](C)(O)[C@H](O[C@H]8CC[C@H](OC(N)=O)[C@@H](C)O8)[C@@H](C)O7)[C@@H](O)[C@@H](C)O6)c(O)c5C4=O)[C@]23O)O[C@@H](C)[C@H]1O` as the molecule, how does the MIC (Pseudomonas aeruginosa) read?
A: 16 µg/mL

Q: What about the MIC (Staphylococcus aureus [8]) of the same molecule?
A: 16 µg/mL

Q: What about the MIC (Klebsiella pneumoniae) of the same molecule?
A: 16 µg/mL

Q: What about the MIC (Escherichia coli [9]) of the same molecule?
A: 16 µg/mL

Q: And the MIC (Bacillus subtilis)?
A: 8 µg/mL

Q: `Cc1cc(O)c2cc3c(c(O)c2c1)C(=O)c1ccc([C@H]2C[C@@H](O)[C@H](O[C@H]4CC[C@H](OC5=CC(=O)[C@@H](C)OC5)[C@H](C)O4)[C@@H](C)O2)c(O)c1C3=O` was tested. Which IC50 (Jurkat) did it give?
A: 3000 nM

Q: What does the source list for `Cc1cc(O)c2c(c1)C1c3c-2c(O)c2cccc(O)c2c3OC(=O)C1c1c[nH]c2ccccc12` (stereo not given)?
A: IC50 (MCF7): 7000 nM; IC50 (A549 [18]): 7000 nM; IC50 (HepG2 [19]): 7000 nM; IC50 (SF-268): 7000 nM

Q: How did the MIC (Staphylococcus aureus [5]) turn out when `CC(=O)C[C@H](SCc1cc2cc(C)cc(O)c2c2c1C(=O)c1c(O)cccc1C2=O)C(=O)O` was run?
A: 20 µM (≈ 9.29 µg/mL)

Q: And the MIC (Candida albicans)?
A: 20 µM (≈ 9.29 µg/mL)

Q: `CN[C@@H]1C[C@H](c2c(O)c3c(c4c(O)cc(C)cc24)C(=O)c2cccc(O)c2C3=O)O[C@H](C)[C@H]1O` was tested. Which IC50 (MDA-MB-231 [20]) did it give?
A: 600 nM

Q: And the IC50 (MDA-MB-468)?
A: 600 nM

Q: What about the IC50 (BT-549) of the same molecule?
A: 600 nM

Q: How did the MIC (Staphylococcus aureus [14]) turn out when `CC(C)C1(O)CC(=O)c2c(cc(O)c3c2C(=O)c2cccc(O)c2C3=O)C1=O` (stereo not given) was run?
A: 3.12 µg/mL
